{
  "source": "patent US6355799B1",
  "about": "“Substituted benzene compounds, process for their preparation, and herbicidal and defoliant compositions containing them” (ISK Americas Incorporated, priority 1997, dated 2002)",
  "format_in_all_cases": "in vivo",
  "key": {"[1]": {"system": "upland rice (Oryza sp., var. Tebonnet, RICE)", "assay": "Pre-emerge test, crop safety", "settings": "crop damage rating 0-100, 14 days after application", "method_in_brief": "(§1)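 Herbicidal damage is scored 0 (none) to 100 (complete plant death) two weeks after a simulated field spray. Rates span 15–1000 g ai/ha, delivered in acetone at 187 l/ha. For post-emergence treatments, plants have 2–3 leaves and the spray carries 0.25% v/v non-ionic surfactant.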"}, "[2]": {"system": "field corn (Zea mays L., var. Dekalb 535, CORN)", "assay": "Pre-emerge test, crop safety", "settings": "crop damage rating 0-100, 14 days after application", "method_in_brief": "as §1"}, "[3]": {"system": "redroot pigweed (Amaranthus retroflexus, AMARE)", "assay": "Pre-emerge test, greenhouse herbicide activity screening", "settings": "phytotoxicity rating 0-100, 14 days after application", "method_in_brief": "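Compounds in acetone were track-sprayed at 15-1000 g ai/ha (187 l/ha) on sandy loam pots: pre-emerge one day after seeding, post-emerge at 2-3 leaf stage with 0.25% v/v non-ionic surfactant. Phytotoxicity was rated 14 days later on a 0 (no damage) to 100 (complete death) scale.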"}, "[4]": {"system": "upland rice (Oryza sp., var. Tebonnet, RICE)", "assay": "Post-emerge test, crop safety", "settings": "post-emerge, 14 days after application, rating scale 0-100", "method_in_brief": "(§2)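 Rating: 0–100 visual injury, 14 DAA. Application: acetone, 187 l/ha, 15–1000 g ai/ha, flat-fan track sprayer with nozzle 40–45 cm above soil or canopy. Post-emerge runs used 0.25% v/v surfactant on 2–3 leaf plants.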"}, "[5]": {"system": "field corn (Zea mays L., var. Dekalb 535, CORN)", "assay": "Post-emerge test, crop safety", "settings": "post-emerge, 14 days after application, rating scale 0-100", "method_in_brief": "as §2"}, "[6]": {"system": "lambsquarters (Chenopodium album, CHEAL)", "assay": "Post-emerge test, greenhouse herbicide activity screening", "settings": "post-emerge, 14 days after application, rating scale 0-100", "method_in_brief": "as §1"}, "[7]": {"system": "ivyleaf morningglory (Ipomoea hederacea, IPOHE)", "assay": "Post-emerge test, greenhouse herbicide activity screening", "settings": "post-emerge, 14 days after application, rating scale 0-100", "method_in_brief": "as §1"}, "[8]": {"system": "large crabgrass (Digitaria sanguinalis, DIGSA)", "assay": "Post-emerge test, greenhouse herbicide activity screening", "settings": "post-emerge, 14 days after application, rating scale 0-100", "method_in_brief": "as §1"}, "[9]": {"system": "green foxtail (Setaria viridis, SETVI)", "assay": "Post-emerge test, greenhouse herbicide activity screening", "settings": "post-emerge, 14 days after application, rating scale 0-100", "method_in_brief": "as §1"}, "[10]": {"system": "johnsongrass (Sorghum halepense, SORHA)", "assay": "Post-emerge test, greenhouse herbicide activity screening", "settings": "post-emerge, 14 days after application, rating scale 0-100", "method_in_brief": "as §1"}, "[11]": {"system": "redroot pigweed (Amaranthus retroflexus, AMARE)", "assay": "Post-emerge test, greenhouse herbicide activity screening", "settings": "post-emerge, 14 days after application", "method_in_brief": "as §1"}, "[12]": {"system": "sicklepod (Cassia obtusifolia, CASOB)", "assay": "Post-emerge test, greenhouse herbicide activity screening", "settings": "post-emerge, 14 days after application, rating scale 0-100", "method_in_brief": "as §1"}, "[13]": {"system": "barnyardgrass (Echinochloa crus-galli, ECHCG)", "assay": "Post-emerge test, greenhouse herbicide activity screening", "settings": "post-emerge, 14 days after application, rating scale 0-100", "method_in_brief": "as §1"}, "[14]": {"system": "velvetleaf (Abutilon theophrasti, ABUTH)", "assay": "Post-emerge test, greenhouse herbicide activity screening", "settings": "post-emerge, 14 days after application, rating scale 0-100", "method_in_brief": "as §1"}, "[15]": {"system": "lambsquarters (Chenopodium album, CHEAL)", "assay": "Pre-emerge test, greenhouse herbicide activity screening", "settings": "phytotoxicity rating 0-100, 14 days after application", "method_in_brief": "(§3)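 Compounds in acetone were track-sprayed at 15–1000 g ai/ha: pre-emergence onto soil sown the previous day, then top-watered to incorporate and later bottom-watered; post-emergence onto 2–3 leaf plants with 0.25% v/v surfactant, bottom-watered only. Ratings on a 0–100 phytotoxicity scale were taken at day 14.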"}, "[16]": {"system": "ivyleaf morningglory (Ipomoea hederacea, IPOHE)", "assay": "Pre-emerge test, greenhouse herbicide activity screening", "settings": "phytotoxicity rating 0-100, 14 days after application", "method_in_brief": "as §3"}, "[17]": {"system": "large crabgrass (Digitaria sanguinalis, DIGSA)", "assay": "Pre-emerge test, greenhouse herbicide activity screening", "settings": "phytotoxicity rating 0-100, 14 days after application", "method_in_brief": "as §3"}, "[18]": {"system": "green foxtail (Setaria viridis, SETVI)", "assay": "Pre-emerge test, greenhouse herbicide activity screening", "settings": "phytotoxicity rating 0-100, 14 days after application", "method_in_brief": "as §3"}, "[19]": {"system": "johnsongrass (Sorghum halepense, SORHA)", "assay": "Pre-emerge test, greenhouse herbicide activity screening", "settings": "phytotoxicity rating 0-100, 14 days after application", "method_in_brief": "as §3"}, "[20]": {"system": "sicklepod (Cassia obtusifolia, CASOB)", "assay": "Pre-emerge test, greenhouse herbicide activity screening", "settings": "phytotoxicity rating 0-100, 14 days after application", "method_in_brief": "as §3"}, "[21]": {"system": "barnyardgrass (Echinochloa crus-galli, ECHCG)", "assay": "Pre-emerge test, greenhouse herbicide activity screening", "settings": "phytotoxicity rating 0-100, 14 days after application", "method_in_brief": "as §3"}, "[22]": {"system": "velvetleaf (Abutilon theophrasti, ABUTH)", "assay": "Pre-emerge test, greenhouse herbicide activity screening", "settings": "phytotoxicity rating 0-100, 14 days after application", "method_in_brief": "as §3"}},
  "data": [
    {"smiles": "Cc1ccc(OC(=O)Nc2c(C)c(Cl)cc(F)c2-n2c(=O)cc(C(F)(F)F)n(C)c2=O)cc1C", "note": "[4-53]", "values": [
      {"measurement": "Pre-emerge Herbicidal Activity RICE", "setting": "[1]; 63 g ai/ha", "result": 10},
      {"measurement": "Pre-emerge Herbicidal Activity RICE", "setting": "[1]; 250 g ai/ha", "result": 50},
      {"measurement": "Pre-emerge Herbicidal Activity CORN", "setting": "[2]; 63 g ai/ha", "result": 0},
      {"measurement": "Pre-emerge Herbicidal Activity CORN", "setting": "[2]; 250 g ai/ha", "result": 25},
      {"measurement": "Pre-emerge Herbicidal Activity AMARE", "setting": "[3]; 63 g ai/ha", "result": 100},
      {"measurement": "Pre-emerge Herbicidal Activity AMARE", "setting": "[3]; 250 g ai/ha", "result": 100},
      {"measurement": "phytotoxicity rating RICE (crop damage)", "setting": "[4]; 63 g ai/ha", "result": 30},
      {"measurement": "phytotoxicity rating RICE (crop damage)", "setting": "[4]; 250 g ai/ha", "result": 65},
      {"measurement": "phytotoxicity rating CORN (crop damage)", "setting": "[5]; 63 g ai/ha", "result": 5},
      {"measurement": "phytotoxicity rating CORN (crop damage)", "setting": "[5]; 250 g ai/ha", "result": 70},
      {"measurement": "phytotoxicity rating CHEAL", "setting": "[6]; 63 g ai/ha", "result": 60},
      {"measurement": "phytotoxicity rating CHEAL", "setting": "[6]; 250 g ai/ha", "result": 90},
      {"measurement": "phytotoxicity rating IPOHE", "setting": "[7]; 63 g ai/ha", "result": 100},
      {"measurement": "phytotoxicity rating IPOHE", "setting": "[7]; 250 g ai/ha", "result": 100},
      {"measurement": "phytotoxicity rating DIGSA", "setting": "[8]; 63 g ai/ha", "result": 0},
      {"measurement": "phytotoxicity rating DIGSA", "setting": "[8]; 250 g ai/ha", "result": 40},
      {"measurement": "phytotoxicity rating SETVI", "setting": "[9]; 63 g ai/ha", "result": 10},
      {"measurement": "phytotoxicity rating SETVI", "setting": "[9]; 250 g ai/ha", "result": 70},
      {"measurement": "phytotoxicity rating SORHA", "setting": "[10]; 63 g ai/ha", "result": 0},
      {"measurement": "phytotoxicity rating SORHA", "setting": "[10]; 250 g ai/ha", "result": 40},
      {"measurement": "phytotoxicity rating AMARE", "setting": "[11]; 63 g ai/ha, rating scale 0-100 (0 no damage, 100 complete death)", "result": 70},
      {"measurement": "phytotoxicity rating AMARE", "setting": "[11]; 250 g ai/ha, rating scale 0-100", "result": 100},
      {"measurement": "phytotoxicity rating CASOB", "setting": "[12]; 63 g ai/ha", "result": 30},
      {"measurement": "phytotoxicity rating CASOB", "setting": "[12]; 250 g ai/ha", "result": 90},
      {"measurement": "phytotoxicity rating ECHCG", "setting": "[13]; 63 g ai/ha", "result": 0},
      {"measurement": "phytotoxicity rating ECHCG", "setting": "[13]; 250 g ai/ha", "result": 60},
      {"measurement": "phytotoxicity rating ABUTH", "setting": "[14]; 63 g ai/ha", "result": 100},
      {"measurement": "phytotoxicity rating ABUTH", "setting": "[14]; 250 g ai/ha", "result": 100},
      {"measurement": "Pre-emerge Herbicidal Activity CHEAL", "setting": "[15]; 63 g ai/ha", "result": 100},
      {"measurement": "Pre-emerge Herbicidal Activity CHEAL", "setting": "[15]; 250 g ai/ha", "result": 100},
      {"measurement": "Pre-emerge Herbicidal Activity IPOHE", "setting": "[16]; 63 g ai/ha", "result": 30},
      {"measurement": "Pre-emerge Herbicidal Activity IPOHE", "setting": "[16]; 250 g ai/ha", "result": 80},
      {"measurement": "Pre-emerge Herbicidal Activity DIGSA", "setting": "[17]; 63 g ai/ha", "result": 40},
      {"measurement": "Pre-emerge Herbicidal Activity DIGSA", "setting": "[17]; 250 g ai/ha", "result": 100},
      {"measurement": "Pre-emerge Herbicidal Activity SETVI", "setting": "[18]; 63 g ai/ha", "result": 80},
      {"measurement": "Pre-emerge Herbicidal Activity SETVI", "setting": "[18]; 250 g ai/ha", "result": 100},
      {"measurement": "Pre-emerge Herbicidal Activity SORHA", "setting": "[19]; 63 g ai/ha", "result": 30},
      {"measurement": "Pre-emerge Herbicidal Activity SORHA", "setting": "[19]; 250 g ai/ha", "result": 85},
      {"measurement": "Pre-emerge Herbicidal Activity CASOB", "setting": "[20]; 63 g ai/ha", "result": 20},
      {"measurement": "Pre-emerge Herbicidal Activity CASOB", "setting": "[20]; 250 g ai/ha", "result": 60},
      {"measurement": "Pre-emerge Herbicidal Activity ECHCG", "setting": "[21]; 63 g ai/ha", "result": 10},
      {"measurement": "Pre-emerge Herbicidal Activity ECHCG", "setting": "[21]; 250 g ai/ha", "result": 85},
      {"measurement": "Pre-emerge Herbicidal Activity ABUTH", "setting": "[22]; 63 g ai/ha", "result": 100},
      {"measurement": "Pre-emerge Herbicidal Activity ABUTH", "setting": "[22]; 250 g ai/ha", "result": 100}
    ]}
  ]
}
